According to patent publication US9205113B2, “Synthetic triterpenoids and methods for modulating stem/progenitor cell gene expression” (Trustees of Dartmouth College, priority 2012, dated 2015):

How the values were obtained:
newborn mouse calvaria = experiment: histologic analysis of calvarial organ cultures (H&E, toluidine blue): chondrogenesis; assay type: cell-based; conditions: 200 nM, 7 days; for induction of chondrogenesis in newborn mouse calvaria (histology): H&E or toluidine blue sections; for formation of proteoglycans such as aggrecan (metachromatic toluidine blue staining): calvarial sections
Procedure: (§1) Calvarial Organ Cultures. Details have been published previously (Garrett, et al. (2003) J. Clin. Invest. 111:1771-82). Calvaria were cultured in BGJ medium supplemented with 1 mg/mL of bovine serum albumin (Cohn fraction V), 100 U/ml each of penicillin/streptomycin, and 0.292 mg/mL of glutamine. On Day 1, the calvaria were treated with synthetic oleanane triterpenoids. On Day 4, the medium was replaced with fresh medium, again containing synthetic oleanane triterpenoids. On Day 7, calvaria were collected, either stored at −80° C. for further RNA analysis or fixed in 10% buffered formalin for 24 hours and transferred to 80% ethanol for histologic analysis.
(§2) Histologic Analysis of Calvaria. After fixation for hours, calvaria were decalcified in EDTA, embedded in paraffin and sectioned at 4 μm. Sections were stained either with modified hematoxylin and eosin (H&E) or with toluidine blue (1% in 70% ethanol for 20 minutes, followed by destaining in 70%, 90% and 100% ethanol for 15 seconds), placed in xylene twice, and then mounted. Procedures for immunofluorescence staining have been described (Medici, et al. (2010) Nat. Med. 74:537-45). Primary antibodies against collagen type II (AB746P, Millipore), were used at 1:100 dilution; ALEXFLUOR secondary antibodies (Invitrogen) at 1:200 dilution. For nuclear staining, To-PRO-3 Iodide (T3605, Invitrogen) was used.
For the results described here, more than 300 individual calvarial organ cultures were performed. […] No new cartilage was seen on control sections stained with either H&E or toluidine blue. […] With toluidine blue, bone stained orthochromatically (blue).
With respect to dose-response to either synthetic oleanane, 200 nM appeared to be optimal. Treatment with 50 nM triterpenoid yielded only marginal induction of chondrogenesis, while treatment with 500 nM synthetic oleanane gave somewhat variable results. Treatment with […] triterpenoid was invariably toxic to the organ cultures.

COL2A1 = experiment: quantitative RT-PCR of calvarial organ cultures: COL2A1; assay type: cell-based; conditions: 7 days of culture, newborn mouse calvaria
Procedure: as §1
(§3) Quantitative RT-PCR (gRT-PCR). Detailed procedures for qRT-PCR are known in the art (Lee, et al. (2006) Biochem. Pharmacol. 72:332-43). In brief, 30 ng of RNA was reverse transcribed to cDNA using the random primers and Applied Biosystems' High Capacity cDNA Archive Kit in a 96-well format MASTERCYCLER Gradient from EPPENDORF. Subsequently, cDNA was amplified with ASSAYS-ON-DEMAND Products containing two gene specific primers and one TAQMAN MGB probe (6-FAM dye-labeled) using the TAQMAN Universal PCR Master Mix in an ABI PRISM 7000 Sequencing Detector (Applied Biosystems). All labeled primers were obtained from Applied Biosystems.
(§4) In addition to the histologic analysis of the calvarial cultures, mechanistic aspects of the action of both CDDO-EA and CDDO-Im were investigated in the calvaria. After 7 days of culture, RNA was isolated from the calvaria and quantitative RT-PCR analysis was performed for more than 15 different markers, including: SOX9, collagen IIα1, all three isoforms of TGF-β, BMPs 2 and 4, BMP receptor II, Smads 3, 4, 6, and 7, tissue inhibitors of metalloproteinases (TIMP-1 and TIMP-2), and matrix metalloproteinase-9 (MMP-9). […] The 50 nM dose was generally ineffective. In contrast, both triterpenoids were strong inhibitors of the expression of MMP-9; CDDO-EA (200 nM) caused almost 80% inhibition of the expression of this metalloproteinase, which is known to be involved in the degradation of cartilage (Shinoda, et al. (2008) J. Biol. Chem. 283:24632-9).

[1] = tested on: type II collagen (collagen IIα1); experiment: immunohistochemistry of calvarial organ cultures: type II collagen; assay type: cell-based, mouse; conditions: 200 nM, calvarial sections, not seen in control sections
Procedure: as §1
as §2, with “used. […]” for “used.”

SOX9 [2] = experiment: quantitative RT-PCR of calvarial organ cultures: SOX9; assay type: cell-based; conditions: 7 days of culture, newborn mouse calvaria
Procedure: as §1, §3, §4

collagen type 2 = experiment: Western blot in bone marrow stem cell cultures: collagen type 2; assay type: cell-based; conditions: 100 nM for 7 days, human BMSC cultures, not detectable in control
Procedure: (§5) Bone Marrow-Derived Stem Cell Culture and Immunoblotting. Human bone marrow-derived stromal cells, which contain a population of responsive mesenchymal stem cells (ScienCell Research Laboratories), were grown in mesenchymal stem cell medium (ScienCell Research Laboratories). Cells were serum-starved 24 hours prior to all experimental conditions. Immunoblotting was performed using the following antibodies at concentrations (and using protocols) recommended by the respective manufacturers: SOX9 (sc-20095, Santa Cruz Biotechnology), collagen IIα1 (sc-7764 and sc-28887, Santa Cruz), aggrecan (ab3778 and ab36861, Abcam), BMP-2 (ab14933, Abcam), phospho-Smad5 (9516, Cell Signaling Technology), Smad5 (9517, Cell Signaling Technology), β-actin (A1978, SigmaeAldrich). HRP-conjugated IgG TRUEBLOT reagents (18-8814, eBioscience) were used at a dilution of 1:1000.
(§6) Further studies on mechanism were pursued in human bone marrow stem cell (BMSC) cultures. […] BMP-2 is known to induce chondrogenic lineage development of human mesenchymal stem cells in culture (Schmitt, et al. (2003) Differentiation 71:567-77).

SOX9 [3] = experiment: Western blot in bone marrow stem cell cultures: SOX9; assay type: cell-based; conditions: 100 nM for 7 days, human BMSC cultures, not detectable in control
Procedure: as §5, §6

aggrecan = experiment: Western blot in bone marrow stem cell cultures: aggrecan; assay type: cell-based; conditions: 100 nM for 7 days, human BMSC cultures, not detectable in control
Procedure: as §5, §6

SMILES | induction of chondrogenesis in newborn mouse calvaria (histology) (newborn mouse calvaria) | formation of proteoglycans such as aggrecan (metachromatic toluidine blue staining) (newborn mouse calvaria) | COL2A1 expression (quantitative RT-PCR) (COL2A1; 50 nM) | COL2A1 expression (quantitative RT-PCR) (COL2A1; 200 nM) | COL2A1 expression (quantitative RT-PCR) (COL2A1; 500 nM) | formation of type II collagen (collagen IIα1), immunohistochemistry [1] | SOX9 expression (quantitative RT-PCR) (SOX9 [2]; 50 nM) | SOX9 expression (quantitative RT-PCR) (SOX9 [2]; 200 nM) | SOX9 expression (quantitative RT-PCR) (SOX9 [2]; 500 nM) | expression of chondrocyte marker collagen type 2 (Western blot) (collagen type 2) | expression of chondrocyte marker SOX9 (Western blot) (SOX9 [3]) | expression of chondrocyte marker aggrecan (Western blot) (aggrecan)
CCNC(=O)[C@]12CCC(C)(C)C[C@H]1[C@H]1C(=O)C=C3[C@@]4(C)C=C(C#N)C(=O)C(C)(C)[C@@H]4CC[C@@]3(C)[C@]1(C)CC2 [CDDO-EA] | marked ability to induce chondrogenesis | induce the formation of proteoglycans | 4.12 ± 1.78 | 5.45 ± 1.13 | 3.18 ± 0.71 | induced the formation of type II collagen | 1.64 ± 0.17 | 2.62 ± 0.33 | 3.12 ± 0.38 | induced expression | induced expression | induced expression
CC1(C)CC[C@]2(C(=O)n3ccnc3)CC[C@]3(C)[C@H](C(=O)C=C4[C@@]5(C)C=C(C#N)C(=O)C(C)(C)[C@@H]5CC[C@]43C)[C@@H]2C1 [CDDO-Im, 1-(2-cyano-3,12-dioxooleana-1,9(11)-dien-28-oyl) imidazole] | marked ability to induce chondrogenesis | induce the formation of proteoglycans | 1.45 ± 0.09 | 1.32 ± 0.23 | 1.72 ± 0.39 | induced the formation of type II collagen | 1.26 ± 0.08 | 1.33 ± 0.05 | 1.83 ± 0.13 | induced expression | induced expression | induced expression
